Test results published in PubChem BioAssay (NCI).
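Cells were grown in 96-well plates and exposed to each compound for 48 hours at five concentrations; endpoints were interpolated linearly between bracketing concentrations, or set to the highest concentration if not reached. The concentration for 50% growth inhibition is given as GI50. The concentration for full growth arrest is given as TGI.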

Legend:
Test in all cases: NCI anticancer screen, dose series, 48 h
U251 CNS = tested on: U251 CNS
K-562 leukemia = tested on: K-562 leukemia
SN12C renal = tested on: SN12C renal
A549 NSCLC = tested on: A549 NSCLC
UACC-257 melanoma = tested on: UACC-257 melanoma
NCI-H522 lung = tested on: NCI-H522 lung
OVCAR-8 ovarian = tested on: OVCAR-8 ovarian
HOP-92 NSCLC = tested on: HOP-92 NSCLC
MALME-3M melanoma = tested on: MALME-3M melanoma
HT29 colon = tested on: HT29 colon

Structure (SMILES)	GI50 (U251 CNS) [µM]	TGI (U251 CNS) [µM]	GI50 (K-562 leukemia) [µM]	TGI (K-562 leukemia) [µM]	GI50 (SN12C renal) [µM]	TGI (SN12C renal) [µM]	GI50 (A549 NSCLC) [µM]	TGI (A549 NSCLC) [µM]	GI50 (UACC-257 melanoma) [µM]	TGI (UACC-257 melanoma) [µM]	GI50 (NCI-H522 lung) [µM]	TGI (NCI-H522 lung) [µM]	GI50 (OVCAR-8 ovarian) [µM]	TGI (OVCAR-8 ovarian) [µM]	GI50 (HOP-92 NSCLC) [µM]	TGI (HOP-92 NSCLC) [µM]	GI50 (MALME-3M melanoma) [µM]	TGI (MALME-3M melanoma) [µM]	GI50 (HT29 colon) [µM]	TGI (HT29 colon) [µM]
O=C(c1ccccc1)c1nn(-c2ccccc2)c2nc3nc(-c4ccccc4)cc(=O)n3nc12	32.6	> 100	21.2	66.7	22.7	53.2	26.5	81.4	30.7	61.4	20.6	58.5	27.1	84.8	24.6	78.3	0.0477	34.6	24.7	64.2
COc1ccc(/C=C(/c2ccccc2)c2c(C)cc(C)c(/C(=C\c3ccc(OC)cc3)c3ccccc3)c2N=Nc2cc(C)cc(C)c2)cc1		> 100		> 100		23.4		> 100		18.8		> 64.1		> 100		> 100		56.6		> 100
CC(=O)C1=C(C)N(c2ccccc2)C2(O)C=CC(=O)C3=C(O)c4ccccc4C(=O)C312 (stereo not given)		40.7		> 100		30.3		> 100		21		36.4		34.3		63.9		2.64		> 100
C[N+](C)(C)C(C1=CCCC1=O)c1ccccc1 (stereo not given)		42.7		> 100		44		> 100		64.4		35		65.6		85.3		41		56
CC[C@H]1C=CCC[C@@]2(C[C@@H]3CC[C@@H]4[C@H](C(=O)OCCCCCCCCCCCCCCCC(=O)N(CCCNC(C)=O)C[C@H](CCNC(C)=O)OC(C)=O)[C@]5(CCC[C@@H](C)O5)NC(=[N+]34)N2)O1		1.11		3.81		2.1		1.36		0.291		0.287		2.48		0.32		0.568		0.998
COc1ccc2c(c1)CCN1C3=C(CCC3)C(=O)C[C@@H]21		> 100		> 100		> 100		> 100		> 100		> 100		> 100		> 100		> 100		> 100
O=c1c2c3c(sc2nc2n1N=C(c1ccc([N+](=O)[O-])cc1)CS2)CCCC3		> 100		> 100		> 100		> 100		> 100		> 100		> 100		> 100		> 100		> 100
O=C1CCCC[C@H]1C(O)CC1CC(=O)N(c2ccccc2)C(=O)C1 (stereo not given in full)		> 100		> 100		> 100		> 100		> 100		> 100		> 100		> 100		> 100		> 100
Cc1cc(C)c(C(=O)/C=C/c2ccccc2)c(C)c1		29.4		> 100		34.7		> 100		> 100		46.1		30		58.4		83.5		> 100
COc1cc(C(=O)OCCn2[nH]c(-c3ccc(Cl)cc3)nc2=S)cc(OC)c1OC		> 100		> 100		> 100		> 100		> 100		> 100		> 100		95.2		> 100		> 100
COc1cc(Nc2nc3ccccc3nc2C(C)C)cc(OC)c1OC		> 100		> 100		> 100		> 100		> 100		> 100		> 100		> 100		> 100		> 100
CC(=O)OC(=C(C#N)C#N)c1nccnc1C(C)=O		> 20		> 20		> 20		> 20		> 20		> 20		> 20		> 20		> 20		8.94
COC(=O)c1ccc(C)cc1CC1Cc2c(C)cccc2C1=O (stereo not given)		20.8		> 34.4		28.2		> 60.5		49		22.8		> 68.8		46.8		45.1		11.1
C=CCn1c(-c2ccc(Cl)cc2Cl)csc1=Nc1c(C)n(C)n(-c2ccccc2)c1=O		25.1		8.38		27.5		23.1		19.2		29.6		21.7		41.1		31.4		25.3
CCOC(=O)N1N(c2ccccc2)C(=O)C1(c1ccccc1)c1ccccc1		> 100		> 100		> 100		> 100		> 100		> 100		> 100		> 100		> 100		> 100
COc1ccc(N(C(=O)NCCO)c2ccccc2)cc1		> 100		> 100		> 100		> 100		> 100		> 100		> 100		> 100		> 100		> 100
CCOC(=O)c1cn2c(ccc3sc4ccccc4c(=O)c32)n1		> 100		> 100		> 100		> 100		> 100		> 100		> 100		> 100		> 100		> 100
